Experimental data reported in EP1529535A1, “Isolation of a circulating human lipolytic peptide” (IPF PharmaCeuticals GmbH, priority 2003, dated 2005).
pEC50: −log10 of the molar value.

Test system: 3T3L1-derived differentiated mouse adipocytes
Format: cell-based
Method: According to the invention 3T3L1-derived differentiated mouse adipocytes can be used as appropriate cell-system. These cells are treated with fractions of human hemofiltrate and identified using a glycerol-estimation method (GPO-Trinder reagent, Sigma, Deisenhofen, Germany) lipolytic activity. […] It was subsequently isolated in several chromatographic steps using reverse-phase and cation-exchange chromatographic material. 3T3L1 cells were obtained from ATCC. They were grown in DMEM with 10% FCS, penicillin, streptomycin, and L-glutamine for proliferation. For differentiation into the mature adipocyte phenotype, the cells were plated onto 96 well plates (Costar) and treated for three days with differentiation medium (DMEM with 10% FCS, dexamethasone, insulin, L-glutamine and 8-Br-cAMP) and subsequently for three to six days with sustainment medium (DMEM with 10% FCS and L-glutamine). Cells differentiated as described above were then treated for five hours with the hemofiltrate fractions diluted in serum-free medium. An aliquot of the cell supernatant was mixed with the glycerol-estimation-solution (GPO-Trinder Reagent, Sigma, Garching, Germany) and incubated for 15 minutes. Then the absorbance was measured at 540 nm in a 96 well plate ELISA reader (Dynex). […] The colored product is measured at 540 nm in a spectrophotometer. […]

CSCC[C@H](NC(=O)[C@H](CCCNC(=N)N)NC(=O)[C@H](Cc1ccc(O)cc1)NC(=O)[C@@H]1CCCN1C(=O)CNC(=O)[C@H](CCC(=O)O)NC(=O)[C@H](CC(=O)O)NC(=O)[C@H](CCCCN)NC(=O)[C@H](CCCCN)NC(=O)[C@H](CCC(=O)O)NC(=O)[C@H](C)NC(=O)[C@H](C)NC(=O)[C@@H](N)C(C)C)C(=O)N[C@@H](CCC(=O)O)C(=O)N[C@@H](Cc1c[nH]cn1)C(=O)N[C@@H](Cc1ccccc1)C(=O)N[C@@H](CCCNC(=N)N)C(=O)N[C@@H](Cc1c[nH]c2ccccc12)C(=O)NCC(=O)N[C@@H](CO)C(=O)N1CCC[C@H]1C(=O)N1CCC[C@H]1C(=O)N[C@@H](CCCCN)C(=O)N[C@@H](CC(=O)O)C(=O)O [vaaekkdegp yrmehfrwgs ppkd]
pEC50: ~7.70

CSCC[C@H](NC(=O)[C@H](CCCNC(=N)N)NC(=O)[C@H](Cc1ccc(O)cc1)NC(=O)[C@@H]1CCCN1C(=O)CNC(=O)[C@H](CCC(=O)O)NC(=O)[C@H](CC(=O)O)NC(=O)[C@H](CCCCN)NC(=O)[C@H](CCCCN)NC(=O)[C@H](CCC(=O)O)NC(=O)[C@H](C)N)C(=O)N[C@@H](CCC(=O)O)C(=O)N[C@@H](Cc1c[nH]cn1)C(=O)N[C@@H](Cc1ccccc1)C(=O)N[C@@H](CCCNC(=N)N)C(=O)N[C@@H](Cc1c[nH]c2ccccc12)C(=O)NCC(=O)N[C@@H](CO)C(=O)N1CCC[C@H]1C(=O)N1CCC[C@H]1C(=O)N[C@@H](CCCCN)C(=O)N[C@@H](CC(=O)O)C(=O)O [β-MSH, aekkdegp yrmehfrwgs ppkd]
pEC50: ~7.70
